In assay [1] the test system is cAMP PDE from bovine aorta. The experiment in a line: Assay for inhibition of cAMP PDE. In kind it is biochemical. Particulars: bovine aorta enzyme; [3H]cAMP substrate; averaged where multiple testing. Here is the method: (§1) Phosphodiesterase enzymes were partially purified according to the procedures reported by Francis, S. H., and Corbin, J. D. (1988) in Methods in Enzymology, Vol. 159, pp. 722-729, Academic Press, New York and Bradford, M. M. in (1976) Anal. Biochem. 72, 248-254. Specifically, the purification was accomplished by chromatography of a bovine aorta extract on a DEAE Tris-acryl column. The eluted fractions were assayed for the various specific activities. The specific enzyme activities were pooled and concentrated. […] The cGMP-specific phosphodiesterase was assayed in the presence of 1 μM cGMP. The calcium/calmodulin dependent enzyme activity was assayed in the presence of 1 μM cGMP, 0.5 units calmodulin (Sigma P-0270, phosphodiesterase 3',5'-cyclic nucleotide activator from bovine heart) per ml of reaction, and 100 μM Ca^2+.
(§2) Enzyme assays were performed in Millipore 96-well polystyrene microtiter plates in a total assay volume of 100 μL of buffer containing 100 mM Tris-HCl and 5 mM MgSO4 at pH 7.5. cGMP PDE inhibitor compounds were dissolved in DMSO at a concentration of 10 mM and then diluted into the assay to give a final concentration of DMSO in the assay of 1% which has no effect on the enzymatic reaction. The reaction mixture consisted of 10 μL diluted inhibitor, 10 μL of a solution of the appropriate phosphodiesterase enzyme preparation, and 60 μL buffer. The reaction was initiated by the addition 20 μL of 5μM [3H]cGMP (100,000 DPM/well). The tritiated cGMP nucleotides were obtained from DuPont/New England Nuclear Lifesciences Company, Boston, Mass. as an ammonium salt (NET-554 guanosine 3',5'-cyclic phosphate, [8,5'-^3 H]).
(§3) After a 30 minute incubation at room temperature the reaction was stopped by the addition of 50 μL of 210 mM ZnSO4 followed by an addition of 50 μL of freshly prepared 19 mM Ba(OH)2 to specifically precipitate the radiolabled 5'-nucleotide product. The Zn--Ba precipitate was filtered onto glass-fiber filters mats (Wallac, Filtermat A, 102×258 mm) using an automated 96-well harvester (TOMTEC Harvester 96®, MACH II). The precipitate was washed from the microtiterplate to the filtermat with a total volume of 1 ml/well of a wash buffer containing 1 mM NaOH and 100 mM NaCl. The filtermat were dried in a microwave oven and placed in a Wallac sample bag for use with the 1205 BetaPlate™. 10 ml of Beta Plate Scint (LKB) was added to the bag and allowed to diffuse throughout the filter. The radiolabel was then quantitated using a LKB/Wallac 1205 BetaPlate™ scintillation counter. Inhibitor dilution curves were created using six concentrations of the inhibitor in duplicate. IC50 values were determined from a linear regression of a Log Logit transformation of the data. M&B 22,948 (2-o-propoxyphenyl-8-azapurin-6-one) was used as the standard control inhibitor for cGMP PDE and was prepared according to U.S. Pat. No. 3,819,631.
The procedure for the inhibition of cAMP PDE was identical to the procedure for the cGMP-specific phosphodiesterase assay above, except that partially purified cAMP PDE from bovine aorta was collected as pooled from the DEAE tris-acryl column based upon its elution relative to cGMP-specific PDE as well as its specificity for cAMP by hydrolysis and then used. The partially purified cAMP PDE was stored as a concentrated solution at 4° C. This enzyme was diluted 1:30 with an assay buffer prior to use. A substrate solution of [^3 H]cAMP was added to 5 μM adenosine 3', 5'-cyclic monophosphate sodium salt in assay buffer to give a solution with a specific activity of 1000 CPM/pmole (100,000 CPM/20 μl). The reaction was initiated by the addition 20 μL of 5 μM [3H]cAMP (100,000 DPM/well). The tritiated cAMP nucleotides were obtained from DuPont/New England Nuclear Lifesciences Company, Boston, Mass. as an ammonium salt (NET-275 adenosine 3',5'-cyclic phosphate, (2,8-^3 H]). Ro 20-1724 was used as the standard control (obtained from Hoffmann LaRoche, Nutley, N.J.).

Assay [2] has as its system ca/calmodulin dependent cGMP PDE from bovine aorta. In words: Assay for inhibition of calcium/calmodulin dependent cGMP phosphodiesterase enzyme (Ca PDE). In kind it is biochemical. Particulars: CaCl2 and calmodulin, averaged where multiple testing, read-out: Ca GMP PDE IC50. Here is the method: as §1, §2, §3
The procedure for the calcium/calmodulin dependent cGMP PDE assay was identical to the cGMP-specific phosphodiesterase assay described above, except for the following changes noted below. Partially purified ca/calmodulin dependent cGMP PDE enzyme from bovine aorta was collected as a pool based upon its elution relative to cAMP-dependent PDE and conformational changes introduced by the addition of 1 mM EDTA for 1 hour at 4° C. It was then diluted 1:1800 in assay buffer containing 143 μM CaCl2 and 0.7 units of calmodulin/ml and 70 μl of this enzyme solution was used per assay well. The standard control used was Vinpocetine purchased from Gedeon Richter LTD, Budapest, Hungary.

Assay [3] deals with T1, cGMP-specific PDE from bovine aorta (Bos taurus, UniProt Q28156).
T1 construct: chromatography of a bovine aorta extract on a DEAE Tris-acryl column; from tissue; host or cells: bovine aorta
The experiment in a line: Assay for inhibition of cGMP PDE. Format: biochemical. As to conditions: bovine aorta enzyme; 30 minute incubation at room temperature, pH 7.5; averaged where multiple testing. Here is the method:
as §1
The partially purified cGMP-specific PDE from bovine aorta was stored as a concentrated solution in glycerol at 4° C. Prior to use it was diluted approximately 1:3000 with an assay buffer containing 100 mM Tris-HCl and 5 mM MgSO4 at pH 7.5 to give approximately 10% conversion of cGMP substrate to GMP in a 30 minute reaction time.
as §2, §3

A short description of assay [4]: In vivo blood pressure measurement in rats (femoral artery catheter). Set-up: species or system male Sprague Dawley rats. As to conditions: intraperitoneal injection. The text has this: The FIGURE is a plot of mean blood pressure (mmHg) versus time (min) for anesthetized male Sprague Dawley rats (Charles River Laboratories, Wilmington, Mass.) following administration of a cyclic GMP phosphodiesterase inhibitor of this in vention by intraperitoneal injection.
Polyethylene catheters (PE50) were inserted into the femoral artery and vein of anesthetized male Sprague Dawley rats (Charles River Laboratories,Wilmington, Mass.) in order to monitor the mean arterial pressure and administer test compounds. Following surgery, the animals were place in individual restraining cages and allowed to regain consciousness. Infusion of 0.9% sodium chloride via the femoral vein (0.07 ml/kg/min) was begun and continued throughout the study period. Observations were begun approximately 90 minutes after the initiation of infusion to allow the animals to fully regain consciousness. Blood pressure was continuously monitored via the femoral artery with a pressure transducer (type 041-500-503; Cobe, Lakewood, Colo.) connected to a Grass Model 7E polygraph. Mean arterial pressure and heart rates were recorded at 3 minute intervals by a computerized data acquisition system. Cyclic GMP phosphodiesterase inhibitor (Example 41) was administered as an intraperitoneal injection, alternatively the inhibitor could have been administered directly into the catheter as an intravenous bolus.

The conditions of assay [5]: rats; McMahon et al. 1989; cited from earlier work.

We go through seven compounds from patent publication US6130333A, “Bicyclic imidazolyl derivatives as phosphodiesterase inhibitors, pharmaceutical compositions and method of use” (Monsanto Company, priority 1998, dated 2000).

A word on the IC50: it is the point on the concentration scale where inhibition reaches its midpoint.

As for `c1ccc(Cn2c(-c3ccc4c(c3)OCO4)nc3ccccc32)cc1` [Example 25, 2-(1,3-Benzodioxol-5-yl)-1-phenylmethyl-1H-benzimidazole], the IC50 amounted to 12.4 µM in assay [1], 75 µM in assay [2] and 0.011 µM in assay [3].

On to `c1ccc2cc(Cn3c(-c4ccc5c(c4)OCO5)nc4ccccc43)ccc2c1` [Example 29, 2-(1,3-Benzodioxol-5-yl)-1-(2-naphthalenylmethyl)-1H-benzimidazole], for which the values for the IC50 in assay [1], in assay [2] and in assay [3] were 5.2 µM, 60 µM and 0.024 µM, respectively.

Turning to `Fc1ccccc1Cn1c(-c2ccc3c(c2)OCO3)nc2ccccc21` [Example 30, 2-(1,3-Benzodioxol-5-yl)-1-(2-fluorophenylmethyl)-1H-benzimidazole], the values for the IC50 in assay [1], in assay [2] and in assay [3] were above 100 µM, above 100 µM and 0.004 µM, respectively.

Consider `c1ccc2c(c1)nc(-c1ccc3c(c1)OCO3)n2Cc1ccc2c(c1)OCO2` [Example 41, 2-(1,3-Benzodioxol-5-yl)-1-[(1,3-benzodioxol-5-yl)methyl]-1H-benzimidazole], for which the figures for the IC50 in assay [1], in assay [2] and in assay [3] were 11.9 µM, 64.5 µM and 0.003 µM, respectively. The “reduction in blood pressure” value in assay [4] is “A reduction in blood pressure was observed”.

As to `Cc1ccc(-c2nc3ccccc3n2Cc2ccc3c(c2)OCO3)cc1` [Example 42, 1-[(1,3-benzodioxol-5-yl)methyl]-2-(4-methylphenyl)-1H-benzimidazole], the IC50 worked out at 18 µM in assay [1], 60 µM in assay [2] and 0.009 µM in assay [3].

As to `c1ccc(Cn2c(-c3ccc4c(c3)OCO4)nc3cccnc32)cc1` [Example 43, 2-(1,3-Benzodioxol-5-yl)-3-(phenylmethyl)-3H-imidazo[4,5-b]pyridine], the IC50 in assay [1] was 7.3 µM; in assay [2] it was above 100 µM; in assay [3], 0.003 µM.

In the case of `CCCOc1ccccc1-c1nc2[nH]nnc2c(=O)[nH]1` [M&B 22,948, 2-o-propoxyphenyl-8-azapurin-6-one], in assay [5], the mean arterial pressure result was “dose-dependent reduction in the mean arterial pressure” and the “urinary cGMP (and not cAMP) levels” value is “increase in urinary cGMP (and not cAMP) levels”.
